Where two headings read alike, the source gives them in different places.
Tests used:
[1] = Human PK model for AMG 510 fitted to digitized published clinical PK data; assay type: in vivo; details: AMG 510 (human)
NSCLC tumors [2] = details: cited from earlier work
NSCLC tumors [3] = details: cited from earlier work; remark: listed apart in the source
[4] = patients with NSCLC, single agent

| SMILES | ke [1] [day⁻¹] | V1 ([1]; assume 70 kg human) [L] | Vp ([1]; assume 70 kg human) [L] | ka ([1]; single dose 960 mg) [day⁻¹] | ORR reported (NSCLC tumors [2]; AMG 510 at 960 mg, patients with NSCLC) [%] | overall response rate (ORR) (NSCLC tumors [2]; [4]) | dose-limiting toxicities (NSCLC tumors [2]; patients, phase I) | Fz (data), frequency in tumor size bin 0–0.3 (NSCLC tumors [2]; six weeks AMG 510) | Fz (data), frequency in tumor size bin 0.3–0.5 (NSCLC tumors [2]; six weeks AMG 510) | Fz (data), frequency in tumor size bin 0.5–0.7 (NSCLC tumors [2]; six weeks AMG 510) | Fz (data), frequency in tumor size bin 0.7–1 (NSCLC tumors [2]; six weeks AMG 510) | Fz (data), frequency in tumor size bin 1–1.2 (NSCLC tumors [2]; six weeks AMG 510) | N (data), number of patients in tumor size bin 0–0.3 (NSCLC tumors [2]; six weeks AMG 510) | N (data), number of patients in tumor size bin 0.3–0.5 (NSCLC tumors [2]; six weeks AMG 510) | N (data), number of patients in tumor size bin 0.5–0.7 (NSCLC tumors [2]; six weeks AMG 510) | N (data), number of patients in tumor size bin 0.7–1 (NSCLC tumors [2]; six weeks AMG 510) | N (data), number of patients in tumor size bin 1–1.2 (NSCLC tumors [2]; six weeks AMG 510) | overall response rate (ORR) (NSCLC tumors [3]; [4]) | dose-limiting toxicities (NSCLC tumors [3]; patients, phase I) |
| --- | --- | --- | --- | --- | --- | --- | --- | --- | --- | --- | --- | --- | --- | --- | --- | --- | --- | --- | --- |
| C=CC(=O)N1CCN(c2nc(=O)n(-c3c(C)ccnc3C(C)C)c3nc(-c4c(O)cccc4F)c(F)cc23)[C@@H](C)C1 [AMG 510, Sotorasib] | 2.98 | 110 | 4.40 | 58.1 | 50 | ~ 50% | no dose‐limiting toxicities | 0.091 | 0.136 | 0.272 | 0.272 | 0.227 | 2 | 3 | 6 | 6 | 5 | – | – |
| C=C(F)C(=O)N1CCN(c2nc(OC[C@@H]3CCCN3C)nc3c2CCN(c2cccc4cccc(Cl)c24)C3)C[C@@H]1CC#N [MRTX849, Adagrasib] | – | – | – | – | – | – | – | – | – | – | – | – | – | – | – | – | – | ~ 50% | no dose‐limiting toxicities |
